Test results: ChEMBL document CHEMBL1154514, “Synthesis and biological evaluation of N-mercaptoacylcysteine derivatives as leukotriene A4 hydrolase inhibitors” (Bioorg Med Chem Lett, 2009); call rule not given here

Legend:
[1] = molecular target: T1, Leukotriene A-4 hydrolase (Cavia porcellus, UniProt P19602); experiment: Inhibition of LTA4 hydrolase in guinea pig lung assessed as inhibition of LTB4 production
T1 sequence (P19602 whole entry): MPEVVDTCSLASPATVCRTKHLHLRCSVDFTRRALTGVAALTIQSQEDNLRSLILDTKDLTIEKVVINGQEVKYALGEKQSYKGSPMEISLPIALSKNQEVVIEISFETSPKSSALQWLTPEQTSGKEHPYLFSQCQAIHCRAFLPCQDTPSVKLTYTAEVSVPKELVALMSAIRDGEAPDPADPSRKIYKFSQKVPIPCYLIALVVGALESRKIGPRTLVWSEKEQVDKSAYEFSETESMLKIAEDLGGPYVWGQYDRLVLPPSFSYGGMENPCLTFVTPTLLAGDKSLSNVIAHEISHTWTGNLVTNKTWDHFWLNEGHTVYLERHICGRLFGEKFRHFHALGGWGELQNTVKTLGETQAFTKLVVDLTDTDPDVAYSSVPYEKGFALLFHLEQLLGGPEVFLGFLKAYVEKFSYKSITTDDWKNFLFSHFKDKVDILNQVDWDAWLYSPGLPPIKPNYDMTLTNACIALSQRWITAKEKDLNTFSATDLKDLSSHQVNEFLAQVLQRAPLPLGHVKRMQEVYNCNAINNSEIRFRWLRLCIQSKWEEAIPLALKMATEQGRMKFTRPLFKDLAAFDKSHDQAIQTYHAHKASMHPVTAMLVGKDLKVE

[2] = molecular target: Angiotensin-converting enzyme (Homo sapiens, UniProt P12821); experiment: Inhibition of angiotensin-converting enzyme in whole blood by HPLC; type: tissue-based
Collagenase 3 = Collagenase 3 (Homo sapiens, UniProt P45452); experiment: Inhibition of type 3 collagenase
[3] = molecular target: Aminopeptidase N (Homo sapiens) (UniProt P15144); experiment: Inhibition of aminopeptidase M at 100 uM
[4] = molecular target: T2, Interstitial collagenase (Homo sapiens) (UniProt P03956); experiment: Inhibition of type 1 collagenase at 100 uM
T2 sequence (whole entry): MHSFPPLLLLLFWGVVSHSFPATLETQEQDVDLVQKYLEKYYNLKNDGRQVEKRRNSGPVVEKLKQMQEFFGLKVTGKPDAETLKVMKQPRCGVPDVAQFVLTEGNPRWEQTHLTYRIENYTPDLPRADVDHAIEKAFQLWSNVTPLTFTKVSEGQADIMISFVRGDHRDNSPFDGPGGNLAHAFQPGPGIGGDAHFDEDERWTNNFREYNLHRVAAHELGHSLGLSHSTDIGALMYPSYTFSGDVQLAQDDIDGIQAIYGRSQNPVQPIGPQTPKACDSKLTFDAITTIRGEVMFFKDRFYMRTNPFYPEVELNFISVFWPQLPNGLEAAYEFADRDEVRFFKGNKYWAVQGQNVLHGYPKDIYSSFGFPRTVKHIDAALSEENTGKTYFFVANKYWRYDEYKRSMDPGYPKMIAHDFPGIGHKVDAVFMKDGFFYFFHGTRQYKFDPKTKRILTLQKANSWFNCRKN

[5] = molecular target: Neprilysin (Homo sapiens) (UniProt P08473); experiment: Inhibition of endopeptidase 24.11 at 100 uM
[6] = molecular target: T3, Endothelin-converting enzyme 1 (Homo sapiens) (UniProt P42892); experiment: Inhibition of endothelin-converting enzyme 1 at 100 uM
T3 sequence (whole entry): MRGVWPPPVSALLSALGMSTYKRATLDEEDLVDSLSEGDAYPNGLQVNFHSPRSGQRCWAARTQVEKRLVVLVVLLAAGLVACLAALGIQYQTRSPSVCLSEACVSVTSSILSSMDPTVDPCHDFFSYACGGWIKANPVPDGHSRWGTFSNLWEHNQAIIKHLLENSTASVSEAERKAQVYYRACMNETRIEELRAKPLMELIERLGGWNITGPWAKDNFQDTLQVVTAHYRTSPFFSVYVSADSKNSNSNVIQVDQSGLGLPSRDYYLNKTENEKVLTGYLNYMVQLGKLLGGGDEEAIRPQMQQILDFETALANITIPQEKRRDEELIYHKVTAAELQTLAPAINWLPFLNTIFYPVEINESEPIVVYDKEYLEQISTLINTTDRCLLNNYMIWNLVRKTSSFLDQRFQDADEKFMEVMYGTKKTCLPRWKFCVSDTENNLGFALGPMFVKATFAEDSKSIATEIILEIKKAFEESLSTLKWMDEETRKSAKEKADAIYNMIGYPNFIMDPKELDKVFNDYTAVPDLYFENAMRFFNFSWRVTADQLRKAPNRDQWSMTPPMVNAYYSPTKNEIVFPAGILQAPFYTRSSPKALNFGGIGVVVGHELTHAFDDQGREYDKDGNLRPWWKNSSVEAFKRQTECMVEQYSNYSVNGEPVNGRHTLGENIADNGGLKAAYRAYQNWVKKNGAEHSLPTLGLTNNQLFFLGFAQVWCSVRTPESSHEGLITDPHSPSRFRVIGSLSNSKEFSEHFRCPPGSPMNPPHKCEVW

Angiotensin-converting enzyme, sequence (P12821 whole entry): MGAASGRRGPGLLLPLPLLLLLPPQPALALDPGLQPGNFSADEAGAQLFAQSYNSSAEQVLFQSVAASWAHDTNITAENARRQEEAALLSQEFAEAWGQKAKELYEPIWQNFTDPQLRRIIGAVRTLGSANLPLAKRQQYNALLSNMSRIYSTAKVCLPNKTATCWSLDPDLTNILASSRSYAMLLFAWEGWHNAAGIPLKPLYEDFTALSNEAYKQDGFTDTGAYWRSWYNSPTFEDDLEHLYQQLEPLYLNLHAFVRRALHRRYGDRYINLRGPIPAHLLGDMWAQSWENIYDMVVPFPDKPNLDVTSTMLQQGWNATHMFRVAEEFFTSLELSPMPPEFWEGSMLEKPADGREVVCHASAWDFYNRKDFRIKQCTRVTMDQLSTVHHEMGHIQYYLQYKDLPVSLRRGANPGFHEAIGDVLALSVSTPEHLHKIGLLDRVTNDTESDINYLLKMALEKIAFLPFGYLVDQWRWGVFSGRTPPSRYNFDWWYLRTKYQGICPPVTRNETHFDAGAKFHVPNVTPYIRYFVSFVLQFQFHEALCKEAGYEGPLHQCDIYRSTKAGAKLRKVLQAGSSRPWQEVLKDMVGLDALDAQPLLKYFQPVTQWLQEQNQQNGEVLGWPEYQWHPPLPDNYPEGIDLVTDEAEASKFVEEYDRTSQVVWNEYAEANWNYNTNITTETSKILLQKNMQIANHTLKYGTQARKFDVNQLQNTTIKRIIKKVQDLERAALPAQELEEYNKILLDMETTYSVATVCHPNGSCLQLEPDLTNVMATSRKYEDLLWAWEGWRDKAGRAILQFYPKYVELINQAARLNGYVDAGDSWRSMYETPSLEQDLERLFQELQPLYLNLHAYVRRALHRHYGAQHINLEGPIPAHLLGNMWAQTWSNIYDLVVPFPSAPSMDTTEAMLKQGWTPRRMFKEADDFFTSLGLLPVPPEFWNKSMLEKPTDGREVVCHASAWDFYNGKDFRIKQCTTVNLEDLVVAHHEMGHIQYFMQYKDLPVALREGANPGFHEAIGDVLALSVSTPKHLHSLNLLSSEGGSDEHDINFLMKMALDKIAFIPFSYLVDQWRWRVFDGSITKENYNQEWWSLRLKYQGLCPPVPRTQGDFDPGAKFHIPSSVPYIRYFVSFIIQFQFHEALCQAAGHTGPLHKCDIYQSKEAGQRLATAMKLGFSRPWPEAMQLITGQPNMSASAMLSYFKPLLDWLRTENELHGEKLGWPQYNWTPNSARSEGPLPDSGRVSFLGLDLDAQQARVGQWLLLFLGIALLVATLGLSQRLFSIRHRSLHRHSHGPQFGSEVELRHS
Aminopeptidase N (Homo sapiens), sequence (P15144 whole entry): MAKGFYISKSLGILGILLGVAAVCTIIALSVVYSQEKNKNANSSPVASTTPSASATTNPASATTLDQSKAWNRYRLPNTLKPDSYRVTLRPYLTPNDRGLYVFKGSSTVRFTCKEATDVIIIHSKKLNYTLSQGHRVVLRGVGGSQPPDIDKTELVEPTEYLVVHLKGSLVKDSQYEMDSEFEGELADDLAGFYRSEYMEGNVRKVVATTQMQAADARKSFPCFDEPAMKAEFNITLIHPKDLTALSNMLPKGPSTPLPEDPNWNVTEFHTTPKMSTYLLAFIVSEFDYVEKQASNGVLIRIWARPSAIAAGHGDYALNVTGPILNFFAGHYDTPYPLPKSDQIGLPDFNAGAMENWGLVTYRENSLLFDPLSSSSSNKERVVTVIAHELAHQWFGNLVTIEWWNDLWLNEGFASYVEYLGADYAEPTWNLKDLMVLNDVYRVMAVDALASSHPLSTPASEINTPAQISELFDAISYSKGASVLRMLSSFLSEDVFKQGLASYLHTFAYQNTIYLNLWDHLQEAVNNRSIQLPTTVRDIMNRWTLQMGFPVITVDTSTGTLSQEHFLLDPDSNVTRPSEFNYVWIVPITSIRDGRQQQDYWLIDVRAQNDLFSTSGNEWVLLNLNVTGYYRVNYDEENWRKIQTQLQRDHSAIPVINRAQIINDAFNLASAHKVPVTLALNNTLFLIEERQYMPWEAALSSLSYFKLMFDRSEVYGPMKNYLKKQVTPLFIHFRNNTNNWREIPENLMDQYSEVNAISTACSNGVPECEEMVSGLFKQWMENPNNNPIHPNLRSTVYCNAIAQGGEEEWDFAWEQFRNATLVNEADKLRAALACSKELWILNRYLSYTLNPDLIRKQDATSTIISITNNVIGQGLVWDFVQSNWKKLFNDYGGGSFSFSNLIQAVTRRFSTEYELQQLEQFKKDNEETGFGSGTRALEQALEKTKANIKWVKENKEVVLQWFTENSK
Neprilysin (Homo sapiens), sequence (P08473 whole entry): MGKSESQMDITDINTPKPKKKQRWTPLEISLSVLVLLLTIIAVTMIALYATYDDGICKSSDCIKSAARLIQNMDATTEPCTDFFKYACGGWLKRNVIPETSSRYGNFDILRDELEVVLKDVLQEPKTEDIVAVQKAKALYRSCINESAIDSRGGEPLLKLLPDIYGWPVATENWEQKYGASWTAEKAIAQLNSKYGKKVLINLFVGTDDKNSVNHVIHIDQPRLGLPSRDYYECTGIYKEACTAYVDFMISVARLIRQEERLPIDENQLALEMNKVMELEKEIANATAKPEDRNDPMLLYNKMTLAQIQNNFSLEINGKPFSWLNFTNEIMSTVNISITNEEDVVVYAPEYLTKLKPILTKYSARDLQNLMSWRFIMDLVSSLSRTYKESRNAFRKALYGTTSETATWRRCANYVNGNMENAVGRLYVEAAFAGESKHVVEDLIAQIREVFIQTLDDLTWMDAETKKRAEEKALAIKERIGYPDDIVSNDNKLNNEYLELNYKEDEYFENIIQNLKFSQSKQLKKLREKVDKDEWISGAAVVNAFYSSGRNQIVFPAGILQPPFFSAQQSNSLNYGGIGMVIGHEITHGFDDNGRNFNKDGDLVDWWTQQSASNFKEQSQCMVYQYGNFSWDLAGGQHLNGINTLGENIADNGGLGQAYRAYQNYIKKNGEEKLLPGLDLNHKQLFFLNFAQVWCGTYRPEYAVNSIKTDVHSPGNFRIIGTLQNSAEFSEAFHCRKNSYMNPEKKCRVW

Structure (SMILES) | IC50 ([1]; read-out: IC50) [nM] | IC50 ([1]; read-out: pIC50 (converted)) [nM] | IC50 [2] [nM] | other results
C[C@H](CS)C(=O)N[C@H](CSCc1ccc(N(C)C)cc1)C(=O)O | > 10000 | – | – | –
C[C@H](CS)C(=O)N[C@@H](CSCc1ccc(C2CCCCC2)cc1)C(=O)O | – | 79 | 4000 | –
CCCC(SC[C@H](NC(=O)[C@H](C)CS)C(=O)O)c1ccc(C(C)C)cc1 (stereo partly drawn) | 180 | – | 420 | –
CCC(SC[C@H](NC(=O)[C@H](C)CS)C(=O)O)c1ccc(C(C)C)cc1 (stereo partly drawn) | – | – | 340 | –
CC(C)c1ccc(C(C)SC[C@H](NC(=O)[C@H](C)CS)C(=O)O)cc1 (stereo partly drawn) | – | – | 200 | –
CN(C)c1ccc(CSC[C@H](NC(=O)CS)C(=O)O)cc1 | 470 | – | – | –
C[C@H](CS)C(=O)N[C@@H](CSCc1ccc(-c2ccccc2)cc1)C(=O)O | 600 | 79.4 | 280 | –
C[C@H](CS)C(=O)N[C@@H](CCSCc1ccc(N(C)C)cc1)C(=O)O | > 10000 | – | – | –
C[C@H](S)C(=O)N[C@@H](CSCc1ccc(N(C)C)cc1)C(=O)O | > 10000 | – | – | –
C[C@H](CS)C(=O)N[C@@H](CSC(C)(C)c1ccc(C2CCCCC2)cc1)C(=O)O | – | – | 3000 | –
C[C@@H](S)C(=O)N[C@@H](CSCc1ccc(N(C)C)cc1)C(=O)O | > 10000 | – | – | –
CC(C)c1ccc(C(C)(C)SC[C@H](NC(=O)[C@H](C)CS)C(=O)O)cc1 | 79 | – | 260 | –
C[C@H](CS)C(=O)N[C@@H](CSCc1ccc(Oc2ccccc2)cc1)C(=O)O | 1700 | 1700 | 370 | –
C[C@H](CS)C(=O)N[C@@H](CSCc1ccc(N(C)C)cc1)C(=O)O | 270 | 270 | 520 | IC50 (Collagenase 3): Not Active; inhibition [3]: 42%; inhibition [4]: 3%; inhibition [5]: 16%; inhibition [6]: 8%
C[C@H](CS)C(=O)N[C@@H](CSCc1cccc(N(C)C)c1)C(=O)O | > 10000 | – | – | –
CCCCC(SC[C@H](NC(=O)[C@H](C)CS)C(=O)O)c1ccc(C(C)C)cc1 (stereo partly drawn) | 510 | – | 3600 | –
CC(C)c1ccc(C(SC[C@H](NC(=O)[C@H](C)CS)C(=O)O)C(C)C)cc1 (stereo partly drawn) | 520 | – | 430 | –
CC(S)CC(=O)N[C@@H](CSCc1ccc(N(C)C)cc1)C(=O)O (stereo partly drawn) | 7400 | – | – | –
CN(C)c1ccc(CSC[C@H](NC(=O)CCCS)C(=O)O)cc1 | > 10000 | – | – | –
CC(C)c1ccc(C(SC[C@H](NC(=O)[C@H](C)CS)C(=O)O)c2ccccc2)cc1 (stereo partly drawn) | 91 | – | 1700 | –
CN(C)c1ccc(CSC[C@H](NC(=O)CCS)C(=O)O)cc1 | > 10000 | – | – | –
C[C@H](CS)C(=O)N[C@@H](CSC(c1ccccc1)c1ccc(C2CCCCC2)cc1)C(=O)O (stereo partly drawn) | 210 | – | > 10000 | –
CC(C)c1ccc(CSC(C)(C)[C@H](NC(=O)[C@H](C)CS)C(=O)O)cc1 | > 10000 | – | > 10000 | –

Second part, led by results:

IC50 ([1]; read-out: IC50) [nM] | IC50 ([1]; read-out: pIC50 (converted)) [nM] | IC50 [2] [nM] | Structure (SMILES) | other results
> 10000 | > 10000 | 100 | C[C@H](CS)C(=O)N[C@@H](CSCc1ccc(F)cc1)C(=O)O | –
– | – | 300 | CSc1ccc(CSC[C@H](NC(=O)[C@H](C)CS)C(=O)O)cc1 | –
– | – | 300 | C[C@H](CS)C(=O)N[C@@H](CSCc1ccc(S(C)(=O)=O)cc1)C(=O)O | –
1700 | 1700 | 250 | C[C@H](CS)C(=O)N[C@@H](CSCc1ccc(Cl)cc1)C(=O)O | –
7200 | 7200 | 240 | Cc1ccc(CSC[C@H](NC(=O)[C@H](C)CS)C(=O)O)cc1 | –
640 | 640 | 340 | CCOc1ccc(CSC[C@H](NC(=O)[C@H](C)CS)C(=O)O)cc1 | –
530 | – | 300 | C[C@H](CS)C(=O)N[C@@H](CSCc1ccc(C#N)cc1)C(=O)O | –
– | 200 | 300 | CC(C)c1ccc(CSC[C@H](NC(=O)[C@H](C)CS)C(=O)O)cc1 | –
– | – | 4600 | CCN(CC)c1ccc(CSC[C@H](NC(=O)[C@H](C)CS)C(=O)O)cc1 | –
400 | – | 260 | C[C@H](CS)C(=O)N[C@@H](CSCc1ccc(OC(F)(F)F)cc1)C(=O)O | –
– | 24 | 130 | C[C@H](CS)C(=O)N[C@@H](CSCc1ccc(C(C)(C)C)cc1)C(=O)O | –
> 10000 | – | 34 | C[C@H](CS)C(=O)N[C@@H](CSCc1ccccc1)C(=O)O | –
– | 72 | 210 | CCCc1ccc(CSC[C@H](NC(=O)[C@H](C)CS)C(=O)O)cc1 | –
2400 | 2400 | 100 | COc1ccc(CSC[C@H](NC(=O)[C@H](C)CS)C(=O)O)cc1 | –
4900 | – | 320 | C[C@H](CS)C(=O)N[C@@H](CSCc1ccc([N+](=O)[O-])cc1)C(=O)O | –
– | 15 | 140 | C[C@H](CS)C(=O)N[C@@H](CSCc1ccc(I)cc1)C(=O)O | –
– | 140 | 340 | C[C@H](CS)C(=O)N[C@@H](CSCc1ccc(C(F)(F)F)cc1)C(=O)O | –
– | 280 | 21 | CCc1ccc(CSC[C@H](NC(=O)[C@H](C)CS)C(=O)O)cc1 | –
610 | 610 | 280 | C[C@H](CS)C(=O)N[C@@H](CSCc1ccc(Br)cc1)C(=O)O | –
